According to patent publication US9974888B2, “Formulations for drug-coated medical devices” (priority 2010, dated 2018):

Test: Dye loss from coated membranes type P in stirred saline
Assay type: physicochemical
Settings: water-soluble dye, stirred saline at 37° C., 5 min
From the text: Membranes type P were coated either with a water-soluble dye without resveratrol or combined with resveratrol.

## Oc1ccc(C=Cc2cc(O)cc(O)c2)cc1 [Resveratrol, resveratrol]
  adhesion of the dye: significantly improved the adhesion of the dye
